The supplement of paper PMC13380429

What was measured:
Settings in all cases: 72 h
Calu-3 [1] = test: relative viability EC50 (midpoint between 100% and the lowest measured viability); higher = less toxic
Calu-3 [2] = test: cell viability relative to DMSO; higher = less toxic
U2OS [3] = test: as above
Vero E6 [4] = test: as above
HepG2 [5] = test: as above
Caco-2 [6] = test: as above
Calu-3 [7] = test: drug sensitivity score (DSS) for viability; higher = more toxic; extreme values may be limits of the assay
U2OS [8] = test: as above
Vero E6 [9] = test: as above
HepG2 [10] = test: as above
Caco-2 [11] = test: as above
Caco-2 [12] = test: relative viability EC50 (midpoint between 100% and the lowest measured viability); higher = less toxic
U2OS [13] = test: as above
Vero E6 [14] = test: as above

SMILES	relative viability EC50 (Calu-3 [1])	cell viability (Calu-3 [2]; 1 nM)	cell viability (Calu-3 [2]; 10 nM)	cell viability (Calu-3 [2]; 100 nM)	cell viability (Calu-3 [2]; 1000 nM)	cell viability (Calu-3 [2]; 10000 nM)	cell viability (U2OS [3]; 1 nM)	cell viability (U2OS [3]; 10 nM)	cell viability (U2OS [3]; 100 nM)	cell viability (U2OS [3]; 1000 nM)	cell viability (U2OS [3]; 10000 nM)	cell viability (Vero E6 [4]; 1 nM)	cell viability (Vero E6 [4]; 10 nM)	cell viability (Vero E6 [4]; 100 nM)	cell viability (Vero E6 [4]; 1000 nM)	cell viability (Vero E6 [4]; 10000 nM)	cell viability (HepG2 [5]; 1 nM)	cell viability (HepG2 [5]; 10 nM)	cell viability (HepG2 [5]; 100 nM)	cell viability (HepG2 [5]; 1000 nM)	cell viability (HepG2 [5]; 10000 nM)	cell viability (Caco-2 [6]; 1 nM)	cell viability (Caco-2 [6]; 10 nM)	cell viability (Caco-2 [6]; 100 nM)	cell viability (Caco-2 [6]; 1000 nM)	cell viability (Caco-2 [6]; 10000 nM)	drug sensitivity score (Calu-3 [7])	drug sensitivity score (U2OS [8])	drug sensitivity score (Vero E6 [9])	drug sensitivity score (HepG2 [10])	drug sensitivity score (Caco-2 [11])	relative viability EC50 (Caco-2 [12])	relative viability EC50 (U2OS [13])	relative viability EC50 (Vero E6 [14])
CC(C)(C)c1ccc(-c2nc3c(N4CCN(Cc5ccc6nccnc6c5)CC4)cccc3[nH]2)cc1	> 10 µM	104%	104%	111%	106%	92.1%	92.8%	101%	93.4%	99.2%	54.8%	102%	105%	103%	95.6%	64.5%	98.3%	96.5%	94.4%	97.7%	66.9%	109%	91.7%	90.3%	100%	59.7%	0	2.4	2.4	1.9	2			
CCCCC1CCC(c2nc(-c3ccncc3)no2)CC1 (stereo not given)																						106%	98.8%	104%	98.7%	103%					0	> 10 µM		
CS(=O)(=O)Nc1c(O)ccc2c1CCC[C@H]2C1=NCCN1																						109%	104%	101%	101%	96.7%					0	> 10 µM		
C[C@H](N/C(=N/C#N)Nc1cccc2ncccc12)c1ccccc1	> 10 µM	97%	102%	107%	103%	94.8%	108%	102%	99.1%	109%	101%											101%	112%	104%	97.8%	98.6%	0	0			0	> 10 µM	> 10 µM	
Cc1cc2c(cc1C(F)(F)F)N(C(=O)Nc1ccc(Oc3cccnc3C)nc1)CC2	> 10 µM	96.4%	98.8%	96%	104%	80.6%	101%	106%	95.8%	105%	95.4%											97.3%	101%	104%	97.1%	91.2%	0.4	0			0	> 10 µM	> 10 µM	
O=C1NC(=O)/C(=C/c2ccc3nccc(-c4ccncc4)c3c2)S1	1.94 µM	103%	101%	97.8%	89.1%	31.4%	96.1%	95.5%	100%	91.7%	37.9%	93.6%	99.1%	89.9%	90.5%	53.5%	95.1%	105%	94.9%	93%	53.8%	92.9%	96.2%	89.3%	95.5%	36%	5.6	4.8	3.9	3.6	4.2	2.6 µM	2.09 µM	
CCNCCCNCCCCNCCCNCC [1,12-Besm]	> 10 µM	95.6%	110%	110%	102%	86.7%	102%	96.1%	96.6%	89.5%	79.1%	101%	104%	99.4%	97.5%	70.5%	104%	104%	106%	86.7%	50.5%	103%	86.3%	96.5%	91.7%	61.8%	0.1	1.3	1.7	4.7	3.2		> 10 µM	
O=c1[nH]cc(F)c(=O)[nH]1 [5-fluorouracil]	> 10 µM	93.5%	99.2%	98.1%	101%	90.5%	100%	97.4%	97.6%	95.6%	64%	102%	95.7%	106%	95.8%	62.9%	103%	93%	103%	83.7%	54.4%	80%	103%	85.7%	93.4%	79.6%	0	2.4	2.5	4.7	1.4	> 10 µM		
CCCCCCCCCCCCCCOc1ccc(C(=O)O)o1 [KD-023]							97.4%	97.4%	101%	95.8%	103%	102%	102%	100%	99%	78.4%	99.8%	103%	103%	105%	69.9%	95%	92.9%	105%	92.5%	82.5%		0	0.8	1	1.1	> 10 µM	> 10 µM	> 10 µM
Cc1ccc(NC(=O)CCCCCC(=O)Nc2ccccc2N)cc1 [TC-H-106]		98.5%	99.7%	92.9%	87.4%	59.4%	101%	96.4%	98.4%	95.7%	80.3%	105%	102%	98.2%	102%	77.6%	99.7%	109%	98.9%	93.4%	57.3%	103%	97%	97.6%	96.2%	81.9%	3.4	1.1	0.6	3.3	0.9	> 10 µM	> 10 µM	> 10 µM
CCCCNNC(=O)c1ccc(Br)cc1 [UF-010]		101%	98.2%	96.8%	95.6%	64.2%	100%	104%	100%	99.8%	70.2%	104%	98.9%	101%	102%	69.6%	106%	94%	105%	88%	61.5%	99.5%	91.9%	92.8%	101%	84.3%	2.4	1.3	1.2	3.6	0.3	> 10 µM		
O=C(c1ccccc1)C(O)c1ccccc1 (stereo not given) [benzoin]																											0	0	0	0.3				
CC(OC(=O)OC1CCCCC1)OC(=O)C1=C(CSc2nnnn2CCN(C)C)CS[C@@H]2[C@H](NC(=O)Cc3csc(N)n3)C(=O)N12 (stereo not given in full) [cefotiam-cilexetil]	> 10 µM	96.4%	90%	99.1%	96.9%	109%	96.5%	102%	98.4%	99.5%	94.8%											82.3%	93.3%	96.8%	113%	117%	0	0			0	> 10 µM	> 10 µM	
Nn1cnc2cc3ccccc3cc2c1=O [centazolone]																											0		0	0				
O=C(Nc1cccc2cccnc12)c1ccc(N2C(=O)[C@@H]3[C@H](C2=O)[C@H]2C=C[C@@H]3C2)cc1 [exo-IWR-1]		87.4%	103%	107%	103%	102%	99.1%	104%	99.6%	108%	104%	94.2%	93.1%	92.2%	97.1%	106%	105%	99.3%	103%	87.9%	92%	92.2%	100%	103%	102%	106%	0	0	0	0.5	0			
Nc1nnc(-c2cccc(Cl)c2Cl)c(N)n1 [lamotrigine]																											0	0						
C#C[C@]1(O)CC[C@H]2[C@@H]3CCC4=CC(=O)CC[C@@H]4[C@H]3CC[C@@]21CC [norgestrel]																											0	0	0	0				
CC1=C(/C=C/C(C)=C/C=C/C(C)=C/CO)C(C)(C)CCC1 [retinol]	> 10 µM	90.6%	103%	101%	91.7%	99.5%	102%	96.9%	102%	96.8%	103%											108%	89.4%	96.7%	97.8%	93.2%	0	0			0	> 10 µM	> 10 µM	
Nc1ccc(S(=O)(=O)Nc2ncccn2)cc1 [sulfadiazine]																											0.1							
NS(=O)(=O)c1cc2c(cc1Cl)NC(C(Cl)Cl)NS2(=O)=O (stereo not given) [trichlormethiazide]																											0	0	0	1.4				
